For one assay, the system named is human T-cells. Briefly: Suppression of Human T-Cell Proliferation Assay (PHA-stimulated, [3H]-thymidine incorporation). The class given is cell-based. Particulars: concentration inhibiting [3H]-thymidine incorporation of PHA-stimulated T-cells by 50%, 72 hours; TABLE 2; read-out: IC50. The essentials: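 SRBC-rosette-purified human peripheral T-cells stimulated with PHA-M (40 μg/ml stock) and compound dilutions, in duplicate, for 72 h at 37° C. Proliferation measured by [3H]-thymidine incorporation during the final 6 h, read by liquid scintillation counting.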
(Uptake of a labelled nucleoside into DNA is a usual measure of proliferation.)

In the next assay the test system is NF-AT. The assay can be described thus: NF-AT Inhibition Assay Directed β-Galactosidase Expression in FGL-5 cells. The note with it: 50% inhibition of NF-AT directed β-galactosidase activity in FGL-5 cells stimulated with phorbol dibutyrate and ionomycin; TABLE 3. The class given is cell-based. The essentials:
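FGL-5 Jurkat cells (3 million cells/ml) carry NF-AT-site-driven lacZ. They were stimulated with phorbol dibutyrate plus ionomycin and incubated with compound 16-18 h at 37 °C, in duplicate wells with matched ethanol or DMSO vehicle controls. β-Galactosidase was read as fluorescence from 4-methylumbelliferyl-β-D-galactoside cleavage, giving percent inhibition.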

The next assay addresses FKBP (Homo sapiens, UniProt P62942). The assay can be described thus: PPIase Inhibition Assay. In kind it is biochemical. The note with it: concentration of inhibitor required for 50% inhibition of enzyme activity; FKBP, substrate Succinyl-Ala-Phe-Pro-Phe-para-nitroanilide; TABLE I. The essentials:
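Chymotrypsin-coupled isomerization of Succinyl-Ala-Phe-Pro-Phe-para-nitroanilide by FKBP in ice-cold 25 mM HEPES pH 7.8, 100 mM NaCl, compound in DMSO. A390 followed 90 sec; first-order rate constants give % activity remaining after subtracting uncatalyzed rate; IC50 by linear regression of V-/V+ versus concentration.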

What is called IC50 is the midpoint of a concentration-inhibition curve.

Structures can show the parent of a compound that is named as a salt.

Sequence of FKBP (P62942 whole entry): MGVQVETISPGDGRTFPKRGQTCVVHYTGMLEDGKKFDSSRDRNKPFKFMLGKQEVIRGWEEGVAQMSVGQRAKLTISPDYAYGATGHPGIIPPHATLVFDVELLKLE

Regarding `COc1cc(C(=O)CN2CCC[C@H]2C(=O)NCCc2ccc(S(N)(=O)=O)cc2)cc(OC)c1OC` [Example 130, L-Proline, 1-[2-(3,4,5-Trimethoxyphenyl)-2-Oxoethyl] 2-(4-Sulfamoylphenyl)ethylamide], the half-maximal inhibitory concentration (IC50) in the assay on human T-cells was 4 µM; in the assay on NF-AT, greater than 15 µM; against FKBP, greater than 5 µM.

Turning to `COc1cc(C(=O)CN2CCC[C@H]2C(=O)N2CCC(c3ccccc3)CC2)cc(OC)c1OC` [Example 131, L-Proline, 1-[2-(3,4,5-Trimethoxyphenyl)-2-Oxoethyl] 4-Phenylpiperldenylamide], the values for the IC50 with human T-cells, in the assay with NF-AT and against FKBP were 22 µM, greater than 33 µM and greater than 5 µM, respectively.

Regarding `COc1ccc(CNC(=O)[C@@H]2CCCN2CC(=O)c2cc(OC)c(OC)c(OC)c2)cc1` [Example 132, L-Proline, 1-[2-(3,4,5-Trimethoxyphenyl)-2-Oxoethyl] 4-Methoxybenzamide Hydrochloride], the 50% inhibitory concentration (IC50) with human T-cells is 24 µM; in the assay on NF-AT it was greater than 33 µM; against FKBP, greater than 5 µM.

On to `COc1cccc(CNC(=O)[C@@H]2CCCN2CC(=O)c2cc(OC)c(OC)c(OC)c2)c1` [Example 133, L-Proline, 1-[2-(3,4,5-Trimethoxyphenyl)-2-Oxoethyl] 3-Methoxybenzamide Hydrochloride], for which the 50% inhibitory concentration (IC50) was 22 µM with human T-cells, greater than 33 µM in the assay with NF-AT and greater than 5 µM against FKBP.

`COc1ccccc1CNC(=O)[C@@H]1CCCN1CC(=O)c1cc(OC)c(OC)c(OC)c1` [Example 134, L-Proline, 1-[2-(3,4,5-Trimethoxyphenyl)-2-Oxoethyl] 2-Methoxybenzamide Hydrochloride]: the half-maximal inhibitory concentration (IC50) in the assay with human T-cells was 19 µM; with NF-AT, greater than 33 µM; against FKBP, greater than 5 µM.

Turning to `COc1cc(C(=O)CN2CCC[C@H]2C(=O)N(C)CCc2ccccc2)cc(OC)c1OC` [Example 135, L-Proline, 1-[2-(3,4,5-Trimethoxyphenyl)-2-Oxoethyl] N-MethylphenethylamideHydrochloride], the half-maximal inhibitory concentration (IC50) with human T-cells is 14 µM; in the assay with NF-AT it was greater than 33 µM; on FKBP, greater than 5 µM.

As to `COc1cc(C(=O)CN2CCC[C@H]2C(=O)N[C@@H](C)c2ccccc2)cc(OC)c1OC` [Example 136, L-Proline, 1-[2-(3,4,5-Trimethoxyphenyl)-2-Oxoethyl] (S)-α-methylbenzylamide Hydrochloride], the IC50 in the assay on human T-cells is 7 µM; in the assay with NF-AT it was greater than 33 µM; at FKBP, greater than 5 µM.

`COc1cc(C(=O)CN2CCC[C@H]2C(=O)N[C@H](C)c2ccccc2)cc(OC)c1OC` [Example 137, L-Proline, 1-[2-(3,4,5-Trimethoxyphenyl)-2-Oxoethyl] (R)-α-methylbenzylamide Hydrochloride]: the figures for the concentration for half-maximal inhibition (IC50) in the assay on human T-cells, in the assay on NF-AT and at FKBP were 16 µM, greater than 33 µM and greater than 5 µM, respectively.

Turning to `COc1cc(C(=O)CN2CCC[C@H]2C(=O)NC(C)CCc2ccccc2)cc(OC)c1OC` (stereo partly drawn) [Example 138, L-Proline, 1-[2-(3,4,5-Trimethoxyphenyl)-2-Oxoethyl] 1-methyl-3-phenylpropylamide Hydrochloride], the values for the IC50 with human T-cells, in the assay on NF-AT and at FKBP were 18 µM, greater than 33 µM and greater than 5 µM, respectively.

In the case of `COc1cc(C(=O)CN2CCC[C@H]2C(=O)NCC23CC4CC(CC(C4)C2)C3)cc(OC)c1OC` [Example 139, L-Proline, 1-[2-(3,4,5-Trimethoxyphenyl)-2-Oxoethyl] Adamant-1-ylmethylamide Hydrochloride], the IC50 was 4 µM in the assay with human T-cells, greater than 33 µM in the assay on NF-AT and greater than 5 µM against FKBP.

In the case of `COc1cc(C(=O)CN2CCC[C@H]2C(=O)N[C@H](C)c2cccc3ccccc23)cc(OC)c1OC` [Example 140, L-Proline, 1-[2-(3,4,5-Trimethoxyphenyl)-2-Oxoethyl] 1-(R)-(1-naphthyl)ethylamide Hydrochloride], the half-inhibitory concentration (IC50) in the assay with human T-cells was 10 µM; in the assay with NF-AT, greater than 33 µM; at FKBP, greater than 5 µM.

The values are drawn from patent US5686424A, “2-oxoethyl derivatives as immunosuppressants” (Miles Inc., priority 1995, dated 1997).
